Data taken from patent publication US7220735B2, “Benzimidazolone histamine H3 antagonists” (Schering Corporation, priority 2002, dated 2007).

Biological target: T1, H3 receptors (Cavia porcellus, UniProt Q9JI35)
T1 construct: The source of the H3 receptors in this experiment was guinea pig brain; from tissue; host or cells: guinea pig brain membranes
Test: H3-Receptor Binding Assay (guinea pig brain membranes)
Details: 3 nM [3H]R-α-methyl histamine or 3 nM [3H]Nα-methyl histamine, 30° C., 30 min
Protocol: The source of the H3 receptors in this experiment was guinea pig brain. The animals weighed 400–600 g. The brain tissue was homogenized with a solution of 50 mM Tris, pH 7.5. The final concentration of tissue in the homogenization buffer was 10% w/v. […] The resulting supernatants were then centrifuged at 50,000×g for 20 min. in order to sediment the membranes, which were next washed three times in homogenization buffer (50,000×g for 20 min. each). The membranes were frozen and stored at −70° C. until needed.
All compounds to be tested were dissolved in DMSO and then diluted into the binding buffer (50 mM Tris, pH 7.5) such that the final concentration was 2 μg/ml with 0.1% DMSO. Membranes were then added (400 μg of protein) to the reaction tubes. The reaction was started by the addition of 3 nM [^3H]R-α-methyl histamine (8.8 Ci/mmol) or 3 nM [^3H]N^α-methyl histamine (80 Ci/mmol) and continued under incubation at 30° C. for 30 min. Bound ligand was separated from unbound ligand by filtration, and the amount of radioactive ligand bound to the membranes was quantitated by liquid scintillation spectrometry.

T1 sequence (Q9JI35 whole entry): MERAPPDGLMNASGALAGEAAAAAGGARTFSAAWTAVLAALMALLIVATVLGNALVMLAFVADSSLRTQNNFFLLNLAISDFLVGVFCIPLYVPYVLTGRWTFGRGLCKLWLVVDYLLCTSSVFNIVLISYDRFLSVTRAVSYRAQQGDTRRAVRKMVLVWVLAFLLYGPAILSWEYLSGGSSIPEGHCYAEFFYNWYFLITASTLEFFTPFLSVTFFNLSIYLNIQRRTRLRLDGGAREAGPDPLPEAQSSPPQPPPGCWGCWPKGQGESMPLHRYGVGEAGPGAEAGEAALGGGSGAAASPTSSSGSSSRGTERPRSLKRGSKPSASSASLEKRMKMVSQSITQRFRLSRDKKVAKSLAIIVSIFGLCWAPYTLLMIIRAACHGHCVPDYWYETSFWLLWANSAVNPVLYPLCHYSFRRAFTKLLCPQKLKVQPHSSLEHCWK

O=C(C1CCN(Cc2ccncc2)CC1)N1CCC(n2c(=O)n(CCn3cccc3)c3ccccc32)CC1 [Example 1AL]
Ki: 0.2 nM
